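In this assay, cells in 96-well plates receive the compound at five concentrations for 48 hours. Endpoints are linearly interpolated between the surrounding concentrations. Abbreviation: GI50, concentration required for 50% inhibition of growth.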 Active and inactive are the calls of the source. Rule as the data show it: active = GI50 up to about 1.1 µM and inactive = higher. Residues, ends and D or L forms follow the SMILES beside them. Groups on a side chain read outwards from the residue. *: point of attachment. Cbz = O=C(OCc1ccccc1)*; Boc = CC(C)(C)OC(=O)*
How the values were obtained:
Assay in all cases: NCI tumour cell line growth inhibition, 48 h
BT-549 = tested on: BT-549
CAKI-1 = tested on: CAKI-1
CCRF-CEM = tested on: CCRF-CEM
DU-145 = tested on: DU-145
HCT-15 = tested on: HCT-15
HT-29 = tested on: HT-29
Hs-578T = tested on: Hs-578T
KM12 = tested on: KM12
MOLT-4 = tested on: MOLT-4
NCI-H460 = tested on: NCI-H460
NCI-H522 = tested on: NCI-H522
OVCAR-3 = tested on: OVCAR-3
PC-3 = tested on: PC-3
RPMI-8226 = tested on: RPMI-8226
SK-MEL-28 = tested on: SK-MEL-28
SK-MEL-5 = tested on: SK-MEL-5
SR = tested on: SR
TK-10 = tested on: TK-10
UO-31 = tested on: UO-31
NCI/ADR-RES = tested on: NCI/ADR-RES

SMILES	GI50 (BT-549)	GI50 (CAKI-1)	GI50 (CCRF-CEM)	GI50 (DU-145)	GI50 (HCT-15) [µM]	GI50 (HT-29)	GI50 (Hs-578T)	GI50 (KM12)	GI50 (MOLT-4)	GI50 (NCI-H460)	GI50 (NCI-H522)	GI50 (OVCAR-3)	GI50 (PC-3)	GI50 (RPMI-8226)	GI50 (SK-MEL-28)	GI50 (SK-MEL-5)	GI50 (SR)	GI50 (TK-10)	GI50 (UO-31)	GI50 (NCI/ADR-RES)
CC1C(NNc2ccccc2)Oc2cc3c(cc2C1c1ccccc1O)OCO3 (stereo unspecified)	14.2 µM (inactive)	0.962 µM (active)	1.4 µM (inactive)	3.89 µM (inactive)	1.7	6.03 µM (inactive)	14.3 µM (inactive)	0.741 µM (active)	3.17 µM (inactive)	2.81 µM (inactive)	0.575 µM (active)	11.8 µM (inactive)	3.2 µM (inactive)	4.07 µM (inactive)	12.3 µM (inactive)	11.6 µM (inactive)	0.284 µM (active)	4.81 µM (inactive)	1.59 µM (inactive)	–
CN(C)Nc1cc(=O)[nH]c(=O)[nH]1	> 100 µM (inactive)	–	> 100 µM (inactive)	> 100 µM (inactive)	> 100	> 100 µM (inactive)	–	> 100 µM (inactive)	> 100 µM (inactive)	> 100 µM (inactive)	–	> 100 µM (inactive)	> 100 µM (inactive)	> 100 µM (inactive)	> 100 µM (inactive)	> 100 µM (inactive)	> 100 µM (inactive)	> 100 µM (inactive)	> 100 µM (inactive)	> 100 µM (inactive)
CCOC(=O)c1c(NC(=O)c2ccccc2)sc2c1CCCC2	> 100 µM (inactive)	> 100 µM (inactive)	> 100 µM (inactive)	> 100 µM (inactive)	> 100	> 100 µM (inactive)	> 100 µM (inactive)	> 100 µM (inactive)	> 100 µM (inactive)	–	–	> 100 µM (inactive)	> 100 µM (inactive)	> 100 µM (inactive)	> 100 µM (inactive)	> 100 µM (inactive)	–	> 100 µM (inactive)	> 100 µM (inactive)	> 100 µM (inactive)
CN1C(=O)C2CCC(=O)N2c2cccnc21 (stereo unspecified)	> 100 µM (inactive)	> 100 µM (inactive)	> 100 µM (inactive)	> 100 µM (inactive)	> 100	> 100 µM (inactive)	> 100 µM (inactive)	> 100 µM (inactive)	> 100 µM (inactive)	> 100 µM (inactive)	> 100 µM (inactive)	> 100 µM (inactive)	–	> 100 µM (inactive)	> 100 µM (inactive)	> 100 µM (inactive)	> 100 µM (inactive)	> 100 µM (inactive)	> 100 µM (inactive)	> 100 µM (inactive)
Cc1ccc(S(=O)(=O)Nn2c(S)c(C#N)c(-c3ccc(Cl)cc3)c(C#N)c2=O)cc1	17.3 µM (inactive)	32.7 µM (inactive)	7.93 µM (inactive)	52.2 µM (inactive)	25.9	–	–	36.2 µM (inactive)	24.7 µM (inactive)	17 µM (inactive)	16.6 µM (inactive)	53.6 µM (inactive)	24.4 µM (inactive)	26.2 µM (inactive)	31.2 µM (inactive)	16.4 µM (inactive)	29.7 µM (inactive)	25.6 µM (inactive)	19.1 µM (inactive)	27.5 µM (inactive)
O=c1c2c(-c3ccccc3)onc2n(-c2ccccc2)c(=O)n1-c1ccccc1	19.2 µM (inactive)	> 100 µM (inactive)	> 100 µM (inactive)	–	15.8	21 µM (inactive)	28.4 µM (inactive)	17.9 µM (inactive)	> 100 µM (inactive)	17.9 µM (inactive)	15.7 µM (inactive)	15.1 µM (inactive)	18.6 µM (inactive)	> 100 µM (inactive)	–	> 100 µM (inactive)	> 100 µM (inactive)	14.5 µM (inactive)	14.9 µM (inactive)	16.9 µM (inactive)
COc1ccc(C2=Nc3c(nc(OC)[nH]c3=O)NC(c3ccccc3)C2)cc1 (stereo unspecified)	31 µM (inactive)	52 µM (inactive)	30.8 µM (inactive)	42.3 µM (inactive)	–	28.4 µM (inactive)	–	18.2 µM (inactive)	38.6 µM (inactive)	–	28.7 µM (inactive)	33.8 µM (inactive)	48 µM (inactive)	32.7 µM (inactive)	19.1 µM (inactive)	18.4 µM (inactive)	53.1 µM (inactive)	–	46.2 µM (inactive)	24.8 µM (inactive)
O=C1c2ccccc2C(=O)c2c(NC(=O)C3CC3)ccc(NC(=O)C3CC3)c21	> 100 µM (inactive)	–	–	–	> 100	> 100 µM (inactive)	> 100 µM (inactive)	> 100 µM (inactive)	> 100 µM (inactive)	> 100 µM (inactive)	65.8 µM (inactive)	> 100 µM (inactive)	> 100 µM (inactive)	> 100 µM (inactive)	> 100 µM (inactive)	> 100 µM (inactive)	> 100 µM (inactive)	> 100 µM (inactive)	> 100 µM (inactive)	> 100 µM (inactive)
CCN(CC)CCN(C(=O)C(C)(C)C)c1ccccc1N	> 100 µM (inactive)	> 100 µM (inactive)	> 100 µM (inactive)	> 100 µM (inactive)	> 100	> 100 µM (inactive)	–	> 100 µM (inactive)	> 100 µM (inactive)	> 100 µM (inactive)	> 100 µM (inactive)	> 100 µM (inactive)	> 100 µM (inactive)	> 100 µM (inactive)	> 100 µM (inactive)	> 100 µM (inactive)	> 100 µM (inactive)	> 100 µM (inactive)	> 100 µM (inactive)	> 100 µM (inactive)
CC(=O)Nc1ccc2cc3c(nc2n1)c1cccnc1n3S(=O)(=O)c1ccccc1	> 100 µM (inactive)	> 100 µM (inactive)	> 100 µM (inactive)	–	> 100	> 100 µM (inactive)	> 100 µM (inactive)	> 100 µM (inactive)	> 100 µM (inactive)	> 100 µM (inactive)	> 100 µM (inactive)	> 100 µM (inactive)	> 100 µM (inactive)	19.1 µM (inactive)	> 100 µM (inactive)	> 100 µM (inactive)	28.3 µM (inactive)	> 100 µM (inactive)	0.195 µM (active)	> 100 µM (inactive)
CC(C)CC(NC(=O)OCc1ccccc1)C(=O)NCCCCC(NC(=O)C(CCCCNC(=O)C(CC(C)C)NC(=O)OCc1ccccc1)NC(=O)C(CCCCNC(=O)C(CC(C)C)NC(=O)OCc1ccccc1)NC(=O)C(CCCCNC(=O)C(CC(C)C)NC(=O)OCc1ccccc1)NC(=O)OC(C)(C)C)C(=O)O (stereo unspecified) (Boc-K([Leu-Cbz])K([Leu-Cbz])K([Leu-Cbz])K([Leu-Cbz])-OH; configuration not given here)	> 25 µM (inactive)	> 25 µM (inactive)	> 25 µM (inactive)	> 25 µM (inactive)	> 25	> 25 µM (inactive)	–	–	> 25 µM (inactive)	> 25 µM (inactive)	> 25 µM (inactive)	> 25 µM (inactive)	> 25 µM (inactive)	> 25 µM (inactive)	> 25 µM (inactive)	> 25 µM (inactive)	> 25 µM (inactive)	> 25 µM (inactive)	> 25 µM (inactive)	–

Source: ChEMBL document CHEMBL1201862, “PubChem BioAssay data set” (2004)
